Laboratory results as given in patent publication US9861735B2, “Extracorporeal perfusion apparatus” (Fresenius Medical Care Deutschland GmbH, priority 2012, dated 2018).
Values joined by “and” are separate entries in the source; they are usually repeats but may differ in a detail not shown here. Equal values may be shown once.

Tests used:
[1] = offset at least in part by the necessary higher dosing; cited from earlier work
[2] = test system: LPS Pseudomonas aeruginosa; assay: Endotoxin batch (batch test I), LAL test, LPS from Pseudomonas aeruginosa in plasma; format: biochemical; conditions: for LAL EU/ml: plasma + 0.5 ng/ml LPS, incubation 60 min, 37° C.
Procedure: (§1) 9 blood-sampling tubes (each measuring 9 ml) spiked with 5 IU heparin are removed from a donor. The plasma is centrifuged off and the cell pellet incubated on a roll mixer. The plasma is spiked with endotoxin (LPS) and used for batch test I:
LPS: Pseudomonas aeruginosa (L-7018 company Sigma batch: 128K4115, −70° C., at 100 μl 10−3 g/ml (1 mg/ml))
(§2) The LPS is used in the batch with a final concentration 0.5 ng/ml. The tests are carried out in 3 ml pyrogen-free glass vials. In batch test I, different PMB concentrations (company. Sigma, P-1004) are added in the duplicate approach and are incubated for 60 min on an overhead shaker at 37° C. (see Table 3.5).
(§3) In batch test 1, PMB concentrations with 0 (without PMB), 10, 100, 250, 500 and 1000 ng/ml are used. Sterile PMB solutions (autoclaved pyrogen-free at 121° C., 90 min) are produced for this purpose with the following concentrations (Table 3.3):
(§4) The endotoxins are measured in the form of EU/ml with the aid of a Limulus Amebocyte Lysate test (LAL) by Charles River.

[3] = test system: LPS E. coli; assay: Endotoxin batch (batch test I), LAL test, LPS from E. coli in plasma; format: biochemical; conditions: for LAL EU/ml: plasma + 0.5 ng/ml LPS, incubation 60 min, 37° C.
Procedure: as §1, §2, §3, §4

[4] = test system: blood cells; assay: Cytokine batch (batch test II): cytokine distribution by blood cells; format: cell-based; conditions: LPS (E. coli)-spiked plasma, 4 hours incubation
Procedure: The plasma spiked with LPS and PMB is fed back following batch test 1 to the cell concentrate obtained from the blood donor in the ratio 1:1 (see Table 3.5). For the cytokine batch, the samples from batch test I were used with a PMB concentration of 0 (without PMB), 250, 500 and 1000 ng/ml. As control, a sample without LPS and with 1000 ng/ml PMB was included. Following the incubation times of 4 h and 12 h at 37° C. on a roll mixer (5 revolutions/min), samples were taken, centrifuged off and 50 μl plasma were frozen at −80° C. for the subsequent cytokine quantification.

[5] = test system: LPS (L-7018 Pseud. aerug.); assay: PMB desorption over time: LPS inactivation by PMB-coated HPR10 in plasma (LAL test); format: biochemical, Pseudomonas aeruginosa; conditions: PMB-coated HPR10 carrier, 1% in LPS-spiked plasma (5 ng/ml), 37° C.
Procedure: The PMB solution (Sigma, 10 mg/ml in dist. water) is autoclaved at 121° C. for 30 min, and the carrier (HPR10) is then coated in 15 ml Greiner tubes with PMB as follows (see Table 10.2): 3 ml carrier with 7.5 ml PMB solution
The coating is carried out overnight on a roll mixer at room temperature. The coated carrier is then washed twice with 10 ml NaCl solution (sterile), and a 50% suspension is produced. A tube without adsorber was included as control.
The plasma with 5 IU heparin is spiked with 5 ng/ml LPS (L-7018 Pseud. aerug. company Sigma batch: 128K4115). In the triplicate approach, 1% PMB-coated carrier is incubated with the LPS-spiked plasma (30 μl carrier+2970 μl LPS spiked plasma) at 37° C. in an overhead shaker and samples were taken at intervals (5, 15 and 60 min) for LAL analysis.
The analysis was performed using an LAL test.

[6] = PMB clearance (dialyser, depletion agent, patient) for dosing calculation; conditions: specified example
Text: The following calculation example, besides the PMB patient clearance, also takes into consideration the clearance of a dialyser (dialysis filter) arranged in the extracorporeal blood circuit and the clearance of the carrier of the depletion agent. The calculation example presupposes an existing PMB serum concentration. This is provided by administration of a bolus prior to the start of the treatment, wherein the injection solutions described under Example 4 can be used for this purpose.
For the calculation of the dosing of polymyxin B via infusion in the extracorporeal blood circuit at a lipid feed point, the PMB clearance of the patient body, of the dialyser and of the depletion agent are taken into consideration: • The PMB dialysis clearance (CDial) can be determined experimentally and is dependent on the plasma flow and also on the dialysis filter type used. In the specified example, this is 60 ml/min. • The PMB clearance of the depletion agent (Cads) is dependent on the carrier material used and also on the filtrate flow.
The PMB total clearance (Ctotal) is given by addition from the individual PMB clearance rates. The resultant decrease of PMB is illustrated in FIG. 16. […]

[7] = patient, specified example; cited from earlier work
[8] = PMB concentration in the plasma 50 to 300 ng/ml (0.05 to 0.3 μg/ml)

Substance	nephrotoxicity comparison (in words) [1]	LAL EU/ml ([2]; PMB 10 ng/ml)	LAL EU/ml ([2]; PMB 100 ng/ml)	LAL EU/ml ([2]; PMB 250 ng/ml)	LAL EU/ml ([2]; PMB 500 ng/ml)	LAL EU/ml ([2]; PMB 1000 ng/ml)	inhibition of LPS from Pseudomonas aeruginosa [2, 8]	LAL EU/ml ([3]; PMB 10 ng/ml)	LAL EU/ml ([3]; PMB 100 ng/ml)	LAL EU/ml ([3]; PMB 250 ng/ml)	LAL EU/ml ([3]; PMB 500 ng/ml) [EU/ml]	LAL EU/ml ([3]; PMB 1000 ng/ml)	inhibition of LPS from E. coli [3, 8]	inhibition of the cytokine distribution (TNF-alpha, IL-1beta, IL-6, IL-8) ([4]; very low PMB concentrations (250, 500, 1000 ng/ml))	inhibition of the key mediator TNF-alpha ([4]; very low PMB concentrations)	LPS inactivation after 5 minutes compared with after 60 minutes of incubation [5]	PMB clearance of the depletion agent (Cads) ([6]; dependent on carrier material and filtrate flow) [mL/min]	PMB dialysis clearance (CDial) ([6]; dependent on plasma flow and dialysis filter type) [mL/min]	half-life for PMB [7] [h]
Colistin	less nephrotoxic than polymyxin B	–	–	–	–	–	–	–	–	–	–	–	–	–	–	–	–	–	–
polymyxin B [PMB]	–	0.178 EU/ml and 0.167 EU/ml	0.112 EU/ml and 0.137 EU/ml	0.108 EU/ml and 0.123 EU/ml	0.091 EU/ml and 0.081 EU/ml	0.062 EU/ml and 0.061 EU/ml	strong inhibition	0.77 EU/ml and 0.871 EU/ml	0.379 EU/ml and 0.382 EU/ml	0.281 EU/ml and 0.29 EU/ml	0.209	0.154 EU/ml and 0.16 EU/ml	strong inhibition	strong inhibition	particularly pronounced	almost the same	45	60	13.6
